Results taken from ChEMBL document CHEMBL1201862, “PubChem BioAssay data set” (2004).
The source made the active and inactive calls.

How the values were obtained:
[1] = DNA binding of candidate compounds, dose response, artefact control for RAD54 inhibitor project, biochemical, fluorescence polarization, cherry-pick (AID 651673); format: functional
HEK293 = experiment: inhibitors of LMP1-driven NF-kB reporter, dose response, cell-based, HEK293, luciferase, cherry-pick (AID 588343); format: functional; conditions: Homo sapiens
[2] = target: T1, Neuropeptides B/W receptor type 1 (Homo sapiens, UniProt P48145); experiment: GPR7 antagonist potency, late-stage follow-up, cell-based, fluorescence, dose response, set 6 (AID 588583); format: functional
T1 sequence (P48145 whole entry): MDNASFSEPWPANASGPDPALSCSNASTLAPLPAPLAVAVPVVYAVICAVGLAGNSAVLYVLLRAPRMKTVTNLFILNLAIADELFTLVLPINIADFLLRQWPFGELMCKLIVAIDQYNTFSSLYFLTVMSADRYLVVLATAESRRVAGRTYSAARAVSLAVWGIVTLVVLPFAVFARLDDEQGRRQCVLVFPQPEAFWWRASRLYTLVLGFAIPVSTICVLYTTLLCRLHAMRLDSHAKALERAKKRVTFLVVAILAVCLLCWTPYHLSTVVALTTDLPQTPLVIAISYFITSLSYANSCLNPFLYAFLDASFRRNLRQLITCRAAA

[3] = target: Melanin-concentrating hormone receptor 1 (Homo sapiens, UniProt Q99705); experiment: Late-stage fluorescence-based counterscreen for antagonists of the G-protein coupled receptor 7 (GPR7): cell-based dose response assay to identify antagonists of the melanin-concentrating hormone receptor 1 (MCHR1) Set 6.; format: functional
Chain of Melanin-concentrating hormone receptor 1 (Q99705 whole entry): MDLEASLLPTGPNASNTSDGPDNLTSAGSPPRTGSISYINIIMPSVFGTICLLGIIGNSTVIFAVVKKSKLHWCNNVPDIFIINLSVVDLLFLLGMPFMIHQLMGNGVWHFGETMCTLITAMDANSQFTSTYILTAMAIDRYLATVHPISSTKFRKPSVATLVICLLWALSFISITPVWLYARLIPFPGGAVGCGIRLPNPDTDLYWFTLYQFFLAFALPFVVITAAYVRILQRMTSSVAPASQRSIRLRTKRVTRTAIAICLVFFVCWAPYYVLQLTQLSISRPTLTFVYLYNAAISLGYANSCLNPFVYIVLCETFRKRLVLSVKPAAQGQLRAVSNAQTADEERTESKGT

[4] = nonselective inhibitors of cellular cAMP signaling, dose response, counter-screen for MC4R biased antagonist project, cell-based, TR-FRET cAMP detection (AID 602305); format: functional;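 also: U2OS cells stimulated with forskolin near its EC80 as the cAMP inducer; potency is for inhibition of forskolin-stimulated cAMP signaling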
Melanocortin receptor 4 = Melanocortin receptor 4 (Homo sapiens, UniProt P32245); experiment: MC4R antagonist potency on cAMP, dose response, cell-based, TR-FRET, biased antagonists (AID 602298); format: functional;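 also: antagonist potency against agonist-stimulated cAMP production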
Chain of Melanocortin receptor 4 (P32245 whole entry): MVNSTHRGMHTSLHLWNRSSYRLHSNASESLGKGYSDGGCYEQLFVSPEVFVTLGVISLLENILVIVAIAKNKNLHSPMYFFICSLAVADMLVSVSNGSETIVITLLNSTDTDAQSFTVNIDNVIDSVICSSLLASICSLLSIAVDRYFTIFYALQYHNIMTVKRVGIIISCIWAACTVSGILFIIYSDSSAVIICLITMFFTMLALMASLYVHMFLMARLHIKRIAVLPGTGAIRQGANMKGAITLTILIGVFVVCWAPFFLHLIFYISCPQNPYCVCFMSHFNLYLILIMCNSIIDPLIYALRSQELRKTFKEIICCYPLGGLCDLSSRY

SN12K1 = experiment: cells; format: functional; conditions: Homo sapiens
P388/ADR = experiment: cells; format: functional; conditions: Mus musculus
P388 = experiment: cells; format: functional; conditions: Mus musculus
[5] = target: T2, Small ubiquitin-related modifier 1 (Homo sapiens, UniProt P63165); experiment: inhibitors of SUMO1 peptide binding, dose response, biochemical, fluorescence polarization, uHTS hits (AID 624382); format: functional; conditions: read-out: IC50_Mean
T2 sequence (P63165 whole entry): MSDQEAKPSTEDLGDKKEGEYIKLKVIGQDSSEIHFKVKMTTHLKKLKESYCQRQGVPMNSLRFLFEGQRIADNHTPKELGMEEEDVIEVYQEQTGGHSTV

[6] = target: T2, Small ubiquitin-related modifier 1; experiment: inhibitors of SUMO1 partner interactions, dose response, biochemical, FRET (AID 624383); format: functional; conditions: read-out: IC50_Mean
[7] = target: T3, Sentrin-specific protease 1 (Homo sapiens, UniProt Q9P0U3); experiment: potency of human SENP1 inhibitors, dose response, biochemical, kinetic FRET (AID 651697); format: functional; conditions: read-out: IC50_Mean
T3 sequence (Q9P0U3 whole entry): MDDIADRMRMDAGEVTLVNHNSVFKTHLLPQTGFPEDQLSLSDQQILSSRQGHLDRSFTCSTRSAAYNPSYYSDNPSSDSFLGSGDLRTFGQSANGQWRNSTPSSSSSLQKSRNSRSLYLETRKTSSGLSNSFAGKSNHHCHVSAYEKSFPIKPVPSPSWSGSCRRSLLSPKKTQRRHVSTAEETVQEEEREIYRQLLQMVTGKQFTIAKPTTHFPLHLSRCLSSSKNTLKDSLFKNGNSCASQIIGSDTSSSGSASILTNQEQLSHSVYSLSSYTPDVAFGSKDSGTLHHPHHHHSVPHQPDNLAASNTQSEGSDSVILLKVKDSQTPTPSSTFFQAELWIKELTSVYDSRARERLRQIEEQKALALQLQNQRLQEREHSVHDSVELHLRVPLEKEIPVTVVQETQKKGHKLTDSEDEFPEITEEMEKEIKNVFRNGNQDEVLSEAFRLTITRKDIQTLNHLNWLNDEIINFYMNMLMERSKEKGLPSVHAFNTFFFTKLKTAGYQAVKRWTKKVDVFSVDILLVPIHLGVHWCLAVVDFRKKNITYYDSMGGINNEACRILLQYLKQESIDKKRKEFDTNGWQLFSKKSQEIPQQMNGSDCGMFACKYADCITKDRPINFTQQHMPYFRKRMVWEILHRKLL

[8] = target: T3, Sentrin-specific protease 1; experiment: Dose response confirmation of small molecule inhibitors of the catalytic domain of the SUMO protease, SENP1 in a FRET assay.; format: functional; conditions: read-out: IC50_Mean
[9] = target: T4, Heat shock factor protein 1 (Mus musculus, UniProt P38532); experiment: inhibition of MG132-induced HSE-luciferase signal, confirmation, cell-based, NIH3T3, luminescence, dose retest (AID 2382); format: functional;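 also: NIH3T3 fibroblasts with HSF1-driven luciferase reporter stressed by proteasome inhibitor MG132; luminescence from HSF1-driven luciferase expression after 8 hours of MG132 stress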
T4 sequence (P38532 whole entry): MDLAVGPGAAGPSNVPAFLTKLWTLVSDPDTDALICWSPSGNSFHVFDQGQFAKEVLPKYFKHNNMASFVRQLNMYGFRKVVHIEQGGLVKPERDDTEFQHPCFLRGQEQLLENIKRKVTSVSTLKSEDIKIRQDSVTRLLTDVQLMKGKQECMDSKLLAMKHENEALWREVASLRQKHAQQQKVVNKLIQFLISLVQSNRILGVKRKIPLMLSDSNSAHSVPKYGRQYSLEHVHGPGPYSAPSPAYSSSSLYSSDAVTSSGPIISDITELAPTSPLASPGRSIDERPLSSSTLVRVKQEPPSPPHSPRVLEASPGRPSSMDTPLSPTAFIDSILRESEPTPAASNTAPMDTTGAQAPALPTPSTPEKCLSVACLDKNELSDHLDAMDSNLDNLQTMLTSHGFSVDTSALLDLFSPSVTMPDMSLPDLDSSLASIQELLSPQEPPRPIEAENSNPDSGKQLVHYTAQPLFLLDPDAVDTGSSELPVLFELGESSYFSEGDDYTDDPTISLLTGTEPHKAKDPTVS

Streptococcus = experiment: Group A Streptococcus viability loss, dose response, counter-screen for streptokinase expression inhibitor project, luminescence, BacTiterGlo (AID 1915); format: functional, organism-based;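 also: potency for reduction of bacterial viability or growth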
[10] = test system: Streptococcus sp. 'group A'; experiment: growth inhibition of control SK(-) GAS strain, dose response, counter-screen for streptokinase expression inhibitor project, luminescence, kanamycin, BacTiterGlo, confirmation (AID 1900); format: functional, organism-based
Streptokinase A = target: T5, Streptokinase A (Streptococcus pyogenes serotype M1, UniProt P10520); experiment: S. pyogenes streptokinase expression inhibitors, potency, dose response, plasminogen activation absorbance, OD405 (AID 1914); format: functional, Streptococcus pyogenes M1 GAS;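 also: secreted streptokinase activity via plasminogen activation per viability signal from cell pellet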
T5 sequence (P10520 whole entry): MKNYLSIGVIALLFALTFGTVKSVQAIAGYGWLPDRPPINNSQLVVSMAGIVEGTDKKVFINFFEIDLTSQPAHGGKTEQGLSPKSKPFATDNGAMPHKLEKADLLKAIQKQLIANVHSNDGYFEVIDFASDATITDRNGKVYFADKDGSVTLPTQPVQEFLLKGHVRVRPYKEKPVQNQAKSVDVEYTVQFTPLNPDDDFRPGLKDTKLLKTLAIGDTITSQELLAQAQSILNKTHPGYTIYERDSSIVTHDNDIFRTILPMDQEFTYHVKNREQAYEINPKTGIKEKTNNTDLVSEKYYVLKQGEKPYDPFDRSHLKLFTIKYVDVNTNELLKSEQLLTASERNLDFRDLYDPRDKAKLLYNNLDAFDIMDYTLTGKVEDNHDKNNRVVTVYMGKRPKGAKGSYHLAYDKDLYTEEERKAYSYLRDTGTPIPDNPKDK

[11] = target: Luciferin 4-monooxygenase (Photinus pyralis, UniProt P08659); experiment: firefly luciferase enzyme inhibitors, dose response, biochemical, luminescence (AID 1891)
Chain of Luciferin 4-monooxygenase (P08659 whole entry): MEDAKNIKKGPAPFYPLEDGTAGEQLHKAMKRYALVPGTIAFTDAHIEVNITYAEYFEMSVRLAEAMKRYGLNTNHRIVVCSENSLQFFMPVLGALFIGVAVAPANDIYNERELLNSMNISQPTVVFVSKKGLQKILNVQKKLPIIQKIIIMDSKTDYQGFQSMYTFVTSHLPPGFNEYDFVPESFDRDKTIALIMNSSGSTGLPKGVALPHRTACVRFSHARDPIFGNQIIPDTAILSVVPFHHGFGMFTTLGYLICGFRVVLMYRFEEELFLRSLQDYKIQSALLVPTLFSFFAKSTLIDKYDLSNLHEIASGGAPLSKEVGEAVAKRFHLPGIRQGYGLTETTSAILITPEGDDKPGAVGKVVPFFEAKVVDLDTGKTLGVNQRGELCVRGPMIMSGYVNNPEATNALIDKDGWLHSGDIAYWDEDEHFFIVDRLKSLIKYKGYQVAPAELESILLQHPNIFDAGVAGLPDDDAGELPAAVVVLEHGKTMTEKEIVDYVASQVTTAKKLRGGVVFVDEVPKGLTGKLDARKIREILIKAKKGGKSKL

HeLa = experiment: HeLa cell cytotoxicity, dose response, cytotoxicity control for MITF activator project, CellTiter-Glo luminescence, cherry-pick samples (AID 540259); format: functional, cell-based; conditions: Homo sapiens
[12] = Luminescence Cell-Based Dose Confirmation HTS to Identify Inhibitors of Platelet Dense Granule Release. [Related pubchem assays: 1663 (Primary HTS), 1678 (Summary of Project)]; format: functional

Cc1nc2oc3c(O)ncnc3c2c2c1COC(C)(C)C2
AC50 [1]: 67.1 µM (active)

CCc1ccc(/C=C2\SC(=S)N(CCCC(=O)NC3=NCCS3)C2=O)cc1
AC50 (HEK293): 1.85 µM (active)

COc1ccc(Oc2c(Cl)cnn(Cc3ccccc3[N+](=O)[O-])c2=O)cc1
IC50 [2]: 1.41 µM (active) | IC50 [3]: 1.41 µM (active)

O=C(CNC(=O)c1ccc(Oc2ccccc2)cc1)OC1CCCCC1=O (stereo not drawn)
IC50 [4]: > 64.6 µM (inactive) | IC50 (Melanocortin receptor 4): > 64.6 µM (inactive)

C=C1C(O)C2(O)OCC34C(CC5C(C)=CC(=O)C(O)C5(C)C23)OC(=O)C(OC(=O)C/C=C/CCCCCCCC)C14 (stereo not drawn)
GI50 (SN12K1): 0.02 µM (active) | GI50 (P388/ADR): 0.0611 µM (active) | GI50 (P388): 0.02 µM (active)

CCCCCCC(=O)Nc1nc(C)c(-c2csc(Nc3cc(Cl)ccc3C)n2)s1
IC50 [5]: > 66.6 µM (inactive) | IC50 [6]: 10.1 µM (active)

Cc1c(C#N)c(O)nc(O)c1N=Nc1ccc(Br)cc1C(=O)O
IC50 [7]: 18.1 µM (active) | IC50 [8]: 10.6 µM (active)

O=C(NC(Cc1ccc(I)cc1)C(=O)O)c1cccc(Br)c1 (stereo not drawn)
GI50 (SN12K1): > 100 µM (inactive) | GI50 (P388/ADR): 55.2 µM (inactive) | GI50 (P388): 47.6 µM (inactive)

CSc1nc(NC2OCC(O)C(O)C2O)c(N)c(=O)n1C (stereo not drawn)
GI50 (SN12K1): > 100 µM (inactive) | GI50 (P388/ADR): > 100 µM (inactive) | GI50 (P388): > 100 µM (inactive)

O=c1c(-c2ccc(F)c(F)c2)c(Br)cnn1Cc1cccc2ccccc12
IC50 [2]: 0.686 µM (active) | IC50 [3]: 0.686 µM (active)

CC(C)(C#N)c1c(Cl)cnn(Cc2cccc3ccccc23)c1=O
IC50 [2]: 2.5 µM (active) | IC50 [3]: 2.5 µM (active)

COc1cccc(C(=O)Nc2sc(C(C)C)cc2C(N)=O)c1OC
IC50 [4]: > 64.6 µM (inactive) | EC50 [9]: > 195 µM (not active) | IC50 (Melanocortin receptor 4): > 64.6 µM (inactive)

CC(C)(C)c1ccc2c(c1)OP1(Oc3cccc4cccnc34)(O2)Oc2ccc(C(C)(C)C)cc2O1
GI50 (SN12K1): 4.24 µM (inactive) | GI50 (P388/ADR): 1.02 µM (active) | GI50 (P388): 0.689 µM (active)

Cc1ccc(-n2cccc2/C=C2\C(=N)N3N=C(C(C)C)SC3=NC2=O)cc1
IC50 [4]: > 64.6 µM (inactive) | IC50 (Melanocortin receptor 4): > 64.6 µM (inactive)

COc1ccc(C(C#N)c2c(Cl)cnn(Cc3cccc4ccccc34)c2=O)c(F)c1 (stereo not drawn)
IC50 [2]: 0.198 µM (active) | IC50 [3]: 0.198 µM (active)

COC(=O)c1c(NC(=O)c2ccccc2)sc(C(=O)c2ccccc2)c1C
IC50 [7]: 15.6 µM (active) | IC50 [8]: 21.3 µM (inactive) | EC50 (Streptococcus): 18.4 µM (active) | EC50 [10]: 6.12 µM (active) | EC50 (Streptokinase A): > 150 µM (not active)

Cc1ccc(N(C)/N=C/c2ccc(Cl)cc2Cl)nn1
EC50 [11]: > 112 µM (not active) | AC50 (HeLa): 75.3 µM (active) | EC50 [12]: > 112 µM (not active)

COc1ccc(OC)c(NC(=O)CCN2C(=O)c3cccc([N+](=O)[O-])c3C2=O)c1
IC50 [4]: > 64.6 µM (inactive) | IC50 (Melanocortin receptor 4): > 64.6 µM (inactive)
